Data published in patent US11066414B2, “Cot modulators and methods of use thereof” (Gilead Sciences, Inc., priority 2015, dated 2021).
Like-named read-outs stand apart in the source and are kept apart here.

Experiments:
TNFα = experiment: Cot Monocyte TNFα Cell Based Assay
Human Cot = Human Cot (Homo sapiens (Human), UniProt P41279); experiment: High Throughput Cot Biochemical Assay
[1] = read-out: EC50 TNF, LPS-stimulated human monocytes, TNFα TR-FRET
[2] = read-out: IC50 HTRF, Cot HTRF (TR-FRET KinEASE) biochemical assay, 400 μM ATP
[3] = Homo sapiens, Monocyte, read-out: EC50 TNF, LPS-stimulated human monocytes, TNFα
[4] = IC50 HTRF, Cot HTRF (TR-FRET) biochemical assay
[5] = read-out: EC50 TNF, LPS-stimulated human monocytes, TNFα
[6] = read-out: IC50 HTRF, Cot HTRF (TR-FRET) biochemical assay

Sequence of Human Cot (P41279 30-397): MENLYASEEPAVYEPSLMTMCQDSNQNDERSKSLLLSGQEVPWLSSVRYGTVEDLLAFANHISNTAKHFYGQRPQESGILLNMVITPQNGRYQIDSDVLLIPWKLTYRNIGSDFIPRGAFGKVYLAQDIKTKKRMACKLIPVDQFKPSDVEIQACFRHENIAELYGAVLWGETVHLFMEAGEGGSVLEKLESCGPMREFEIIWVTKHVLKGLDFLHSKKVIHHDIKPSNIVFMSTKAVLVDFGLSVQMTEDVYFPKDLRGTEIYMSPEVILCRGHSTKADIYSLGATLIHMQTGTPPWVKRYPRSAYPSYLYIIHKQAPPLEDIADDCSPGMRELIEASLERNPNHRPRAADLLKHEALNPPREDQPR

Structure (SMILES)	EC50 (TNFα; [3])	IC50 (Human Cot; [4])	further results
CC(C)(C)CNc1c(C#N)cnc2c(C#N)cc(N[C@H](c3cn(C(CF)CF)nn3)c3cccc4ncccc34)cc12 [Example 893, (S)-6-(((1-(1,3-difluoropropan-2-yl)-1H-1H-1,2,3-triazol-4-yl)(quinolin-5-yl)methyl)amino)-4-(neopentyl-amino)quinoline-3,8-dicarbonitrile]	–	–	EC50 (TNFα; [1]): 0.099 µM; IC50 (Human Cot; [2]): 0.004 µM
COc1nccc2c([C@H](Nc3cc(C#N)c4ncc(C#N)c(NCC(C)(C)C)c4c3)c3cn(C4CC4)nn3)cccc12 [Example 808, (S)-6-(((1-cyclopropyl-1H-1,2,3-triazol-4-yl)(1-methoxylsoquinolin-5-yl)methyl)airiino)-4-(neopentylamino)quinoline-3,8-dicarbonitrile]	–	–	EC50 (TNFα; [1]): 0.029 µM; IC50 (Human Cot; [2]): 0.003 µM
N#Cc1cnc2c(Cl)cc(N[C@H](c3c[nH]nn3)c3cccnc3F)cc2c1Nc1cnc(F)c(F)c1 [Example 151, (S)-8-chloro-4-((5,6-difluoropyridin-3-yl)amino)-6-(((2-fluoropyridin-3-yl)(1H-1,2,3-triazol-4-yl)methyl)amino)quinoline-3-carbonitrile]	1.3 µM	0.008 µM	–
Cc1ncccc1[C@H](Nc1cc(Cl)c2ncc(C#N)c(Nc3ccc(F)c(Cl)c3)c2c1)c1cn(C2CCN(C(C)(C)C)CC2)nn1 [Example 283]	–	–	EC50 (TNFα; [5]): 0.05 µM; IC50 (Human Cot; [6]): 0.003 µM
Cc1nc(F)ccc1[C@H](Nc1cc(C#N)c2ncc(C#N)c(NCC(C)(C)c3ccccc3)c2c1)c1cn(C2(C(F)(F)F)CC2)nn1 [Example 614, (S)-6-(((6-fluoro-2-methylpyridin-3-yl)(1-(1-(trifluoromethyl)cyclopropyl)-1H-1,2,3-triazol-4-yl)methyl)amino)-4-((2-methyl-2-phenylpropyl)amino)quinoline-3,8-dicarbonitrile]	0.154 µM	0.009 µM	–
COC[C@H](Nc1c(C#N)cnc2c(Cl)cc(N[C@@H](c3cccnc3)c3c[nH]nn3)cc12)c1ccccc1 [Example 203, 8-chloro-4-(((R)-2-methoxy-1-phenylethyl)amino)-6-(((S)-pyridin-3-yl(1H-1,2,3-triazol-4-yl)methyl)amino)quinoline-3-carbonitrile]	9.09 µM	6.92 µM	–
[2H][C@](Nc1cc(Cl)c2ncc(C#N)c(N[C@H](CC)c3ccccc3)c2c1)(c1ccc(F)nc1)c1cn(C2CC2)nn1 [Example 155, 8-chloro-6-(((S)-(1-cyclopropyl-1H-1,2,3-triazol-4-yl)(6-fluoropyridin-3-yl)methyl-d)amino)-4-(((R)-1-phenylpropyl)amino)quinoline-3-carbonitrile]	0.079 µM	0.002 µM	–
CC(C)(C)CNc1c(C#N)cnc2c(Cl)cc(N[C@H](c3cn(C4(C(F)F)CC4)nn3)c3cccc4[nH]ncc34)cc12 [Example 500, (S)-8-chloro-6-(((1-(1-(difluoromethyl- )cyclopropyl)-1H-1,2,3-triazol-4-yl)(1H-indazol-4-yl)methyl)amino)-4-(neopentylamino)quinoline-3-carbonitrile]	–	–	EC50 (TNFα; [5]): 0.321 µM; IC50 (Human Cot; [6]): 0.008 µM
[2H][C@](Nc1cc(Cl)c2ncc(C#N)c(N[C@@H](CC#N)c3ccccc3)c2c1)(c1ccc(F)nc1)c1cn(C2CC2)nn1 [Example 128, 8-chloro-4-(((S)-2-cyano-1-phenylethyl)amino)-6-(((S)-(1-cyclopropyl-1H-1,2,3-triazol-4-yl)(6-fluoropyridin-3-yl)methyl-d)amino)quinoline-3-carbonitrile]	> 10 µM	0.698 µM	–
CC(C)(C)CNc1c(C#N)cnc2c(Cl)cc(N[C@H](c3cn(C4CC4)nn3)c3cccc4[nH]ncc34)cc12 [Example 448, (S)-8-chloro-6-(((1-cyclopropyl-1H-1,2,3-triazol-4-yl)(1H-indazol-4-yl)methyl)-amino)-4-(neopentylamino)quinoline-3-carbonitrile]	0.044 µM	0.002 µM	–
N#CCC[C@@H](Nc1c(C#N)cnc2c(Cl)cc(N[C@H](c3cn(C4CC4)nn3)c3csc4c3CCN(C3COC3)C4)cc12)c1ccccc1 [Example 84, 8-chloro-4-(((R)-3-cyano-1-phenylpropyl)amino)-6-(((S)-(1-cyclopropyl-1H-1,2,3-triazol-4-yl)(6-(oxetan-3-yl)-4,5,6,7-tetrahydrothieno[2,3-c]pyridin-3-yl)methyl)amino)quinoline-3-carbonitrile]	0.01 µM	0.001 µM	–
Cn1ccc2c([C@H](Nc3cc(C#N)c4ncc(C#N)c(NCC(C)(C)C)c4c3)c3cn(C4(C(F)F)CC4)nn3)cccc21 [Example 847, (S)-6-(((1-(1-(difluoromethyl)-cyclopropyl)-1H-1,2,3-triazol-4-yl)(1-methyl-1H-indol-4-yl)methyl)amino)-4-(neopentylamino)quinoline-3,8-dicarbonitrile]	–	–	EC50 (TNFα; Homo sapiens, Monocyte, read-out: EC50 TNF, LPS-stimulated human monocytes, TNFα TR-FRET): 0.296 µM; IC50 (Human Cot; IC50 HTRF, Cot HTRF (TR-FRET KinEASE) biochemical assay, 400 μM ATP): 0.031 µM
COc1nccc2c([C@H](Nc3cc(C#N)c4ncc(C#N)c(NCC(C)(C)C)c4c3)c3cn(C4(C(F)F)CC4)nn3)cccc12 [Example 810, (S)-6-(((1-(1-(difluoromethyl)-cyclopropyl)-1H-1,2,3-triazol-4-yl)(1-methoxylsoquinolin-5-yl)methyl)amino)-4-(neopentylamino)quinoline-3,8-dicarbonitrile]	–	–	EC50 (TNFα; [1]): 0.054 µM; IC50 (Human Cot; [2]): 0.004 µM
Cc1nc(F)ccc1[C@H](Nc1cc(Cl)c2ncc(C#N)c(NCC(C)(C)C(F)(F)F)c2c1)c1nnn(C2(C3CC3)CC2)c1F [Example 957]	–	–	EC50 (TNFα; [1]): 0.054 µM; IC50 (Human Cot; [2]): 0.005 µM
CC(C)(C)CNc1c(C#N)cnc2c(C#N)cc(N[C@H](c3cn(C4(CO)CC4)nn3)c3cccc4ncsc34)cc12 [Example 465, (S)-6-((benzo[d]thiazol-7-yl(1-(1-(hydroxymethyl)cyclopropyl)-1H-1,2,3-triazol-4-yl)methyl)amino)-4-(neopentylamino)quinoline-3,8-dicarbonitrile]	0.155 µM	0.002 µM	–
N#Cc1cnc2c(Cl)cc(N[C@@H](c3cscn3)c3cn(C4COC4)nn3)cc2c1Nc1ccc(F)c(Cl)c1 [Example 363, (S)-8-chloro-4-((3-chloro-4-fluorophenyl)amino)-6-(((1-(oxetan-3-yl)-1H-1,2,3-triazol-4-yl)(thiazol-4-yl)methyl)amino)quinoline-3-carbonitrile]	0.257 µM	0.004 µM	–
N#Cc1cnc2c(Cl)cc(N[C@@H](c3ccc4c(c3)CNC4)c3c[nH]nn3)cc2c1Nc1ccc(F)c(Cl)c1 [Example 55, (S)-8-chloro-4-((3-chloro-4-fluorophenyl)amino)-6-((isoindolin-5-yl(1H-1,2,3-triazol-4-yl)methyl)amino)quinoline-3-carbonitrile]	10.8 µM	0.058 µM	–

More lines, main results first:

EC50 (TNFα; [3])	IC50 (Human Cot; [4])	Structure (SMILES)	further results
0.127 µM	0.004 µM	CC(C)(CNc1c(C#N)cnc2c(Cl)cc(N[C@H](c3cn(C4(C(F)F)CC4)nn3)c3cccc4c(=O)[nH]ccc34)cc12)C(F)(F)F [Example 726, (S)-8-chloro-6-(((1-(1-(difluoromethyl)cyclopropyl)-1H-1,2,3-triazol-4-yl)(1-oxo-1,2-dihydroisoquinolin-5-yl)methyl)amino)-4-((3,3,3-trifluoro-2,2-dimethylpropyl)amino)quinoline-3-carbonitrile]	–
0.034 µM	0.002 µM	Cc1nc(F)ccc1[C@H](Nc1cc(Cl)c2ncc(C#N)c(N[C@H]3CCOC3(C)C)c2c1)c1cn(C2(C(F)F)CC2)nn1 [Example 516, 8-chloro-6-(((S)-(1-(1-(difluoromethyl)-cyclopropyl)-1H-1,2,3-triazol-4-yl)(6-fluoro-2-methylpyridin-3-yl)methyl)amino)-4-(((S)-2,2-dimethyltetrahydrofuran-3-yl)amino)quinoline-3-carbonitrile]	–
0.182 µM	0.005 µM	Cc1nc(F)ccc1[C@H](Nc1cc(C#N)c2ncc(C#N)c(NCC(C)(C)C)c2c1)c1cn(C2(C(=O)N(C)C)CC2)nn1 [Example 642, (S)-1-(4-(((3,8-dicyano-4-(neopentylamino)quinolin-6-yl)amino)(6-fluoro-2-methylpyridin-3-yl)methyl)-1H-1,2,3-triazol-1-yl)-N,N-dimethylcyclopropane-1-carboxamide]	–
0.124 µM	0.008 µM	Cc1nc(F)ccc1[C@H](Nc1cc(Cl)c2ncc(C#N)c(NCC(C)(C)C)c2c1)c1cn(C2(C(F)(F)F)COC2)nn1 [Example 548, (S)-8-chloro-6-(((6-fluoro-2-methylpyridin-3-yl)(1-(3-(trifluoromethyl)oxetan-3-yl)-1H-1,2,3-triazol-4-yl)methyl)amino)-4-(neopentylamino)quinoline-3-carbonitrile]	–
0.054 µM	0.002 µM	Cc1nc(F)ccc1[C@H](Nc1cc(Cl)c2ncc(C#N)c(NCC(C)(C)C)c2c1)c1cn(C2CC2)nn1 [Example 716, (S)-8-chloro-6-(((1-cyclopropyl-1H-1,2,3-triazol-4-yl)(6-fluoro-2-methylpyridin-3-yl)methyl)amino)-4-(neopentylamino)quinoline-3-carbonitrile]	–
0.096 µM	0.004 µM	CC(C)(C)CNc1c(C#N)cnc2c(Cl)cc(N[C@H](c3cn(C4(C(F)F)CC4)nn3)c3cccc4ncccc34)cc12 [Example 508, (S)-8-chloro-6-(((1-(1-(difluoromethyl)-cyclopropyl)-1H-1,2,3-triazol-4-yl)(quinolin-5-yl)methyl)amino)-4-(neopentylamino)-quinoline-3-carbonitrile]	–
0.057 µM	0.003 µM	Cc1nc(F)ccc1[C@H](Nc1cc(C#N)c2ncc(C#N)c(NCC(C)(C)C)c2c1)c1cn(C(C)(C)C(F)F)nn1 [Example 590, (S)-6-(((1-(1,1-difluoro-2-methylpropan-2-yl)-1H-1,2,3-triazol-4-yl)(6-fluoro-2-methylpyridin-3-yl)methyl)amino)-4-(neopentylamino)-quinoline-3,8-dicarbonitrile]	–
